Measurements reported in patent publication US11884747B2, “Compstatin analogs with increased solubility and improved pharmacokinetic properties” (The Trustees of the University of Pennsylvania, priority 2018, dated 2024).
“And” between values parts separate entries of the source, which are not always exact repeats. Equal entries are not always repeated. “Also recorded” adds a separate entry of the source. Where two headings read alike, the source gives them in different places. Marks after values point to notes of the source that are not given here.

Experiments:
[1] = Pharmacokinetics in NHP plasma after single s.c. injection, with plasma C3 levels
[2] = tested on: classical pathway of complement; experiment: Classical pathway complement inhibition ELISA (C3b deposition) in normal human plasma; assay type: biochemical; conditions: human plasma diluted 1:40; mean of at least three experiments
Description: For this purpose, microtiter wells (NUNC) were coated with 50 μl of 1% ovalbumin in PBS (pH 7.4) at ambient temperature for 2 h. The wells were blocked with 200 μl of 1% BSA in PBS for 1 h, then coated with 50 μl of 1:1000 α-ovalbumin polyclonal antibody in PBS for 1 h. Between each step, the plate was washed thrice with 200 μl of 0.05% Tween 20 in PBS (PBS-T); 30 μl of VBS (Veronal buffer 1×; 5 mM veronal, pH 7.4, containing 150 mM NaCl, 0.5 mM CaCl2 and 0.5 mM MgCl2) were placed in all but the first well of each row of the 96-well plate, and 5 μM peptide solutions in VBS were prepared. […] Human plasma diluted 1:40 in VBS was incubated for 15 min with peptide of 0.005 to 2.5 μM. After washing with PBS-T, 50 μl/well of 1:1000 goat a-human C3 HRP conjugated antibody in 1% BSA in PBS was added to the wells and incubated for 1 h at room temperature. Complement fixation indicating activation was detected by the addition of HRP substrate (0.05% ABTS and 0.1% of 30% aqueous H2O2 in 0.1 M sodium citrate, pH 4.2) and read at 405 nm. The absorbance data obtained at 405 nm were translated into % inhibition, considering 100% to be equal to complement activation in the absence of peptide. The percent inhibition was plotted against the logarithm of concentrations, and the resulting data set was fitted to the equation “log(inhibitor) vs. normalized response” using GraphPad Prism 5 (La Jolla, CA). IC50 values were obtained from the fitted parameters of the mean of at least three independent experiments. Cp40 was always used as the internal control.

[3] = Pharmacokinetics after single i.v. injection; assay type: in vivo, cynomolgus monkeys
Description: FIG. 11 show graphs of peptide concentration over time in cynomolgus monkeys to which was administered a single 2 mg/kg intravenous injection of Cp40-KK (panel a), Cp40-KKK (panel b), mPEG(1 k)-Cp40 (panel c), and mPEG(3 k)-Cp40 (panel d). […]
In vivo pharmacokinetic studies were conducted, in which cynomolgus monkeys were administered single i.v. injections of mPEG(1 k)-Cp40, mPEG(3 k)-Cp40, Cp40-KK, or Cp40-KKK.

purified human C3b = molecular target: T1, purified human C3b (Homo sapiens, UniProt P01024); experiment: SPR C3b-binding activity of compound present in vitreous samples
T1 construct: purchased Complement Technology, Inc., Tyler, TX
Description: To confirm that the compound present in the NHP vitreous maintains C3b-binding activity, which is a prerequisite for eliciting its inhibitory action across all complement pathways, surface plasmon resonance (SPR) binding experiments were conducted. Briefly, for a positive binding control, serial dilutions of Cp40-KKK (16, 8, 4, and 2 nM) were added to rabbit vitreous samples and flowed onto a Biacore CM5 chip immobilized with purified human C3b (Complement Technology Inc, Tyler, TX) (see FIG. 19A). Next, vitreous samples were collected from a Cp40-KKK injected eye at day 14 post-injection and subjected to heat-inactivation at 95° C. for 5 min. Both heat-inactivated and non-heat-inactivated samples were flowed onto a CM5 chip immobilized with purified human C3b as indicated above (FIG. 19B).

human C3b = molecular target: T2, human C3b (Homo sapiens, UniProt P01024); experiment: SPR binding affinity and kinetic profile with immobilized C3b; conditions: 25 °C
T2 construct: purchased Complement Technology, Inc., Tyler, TX

physchem = conditions: pH 7.4, Conc. (mg/ml), solubility in PBS
[4] = NHP vitreous, day 14 post-injection
[5] = pH adjusted upon addition of PBS

T1 sequence (P01024 23-667 limits assumed): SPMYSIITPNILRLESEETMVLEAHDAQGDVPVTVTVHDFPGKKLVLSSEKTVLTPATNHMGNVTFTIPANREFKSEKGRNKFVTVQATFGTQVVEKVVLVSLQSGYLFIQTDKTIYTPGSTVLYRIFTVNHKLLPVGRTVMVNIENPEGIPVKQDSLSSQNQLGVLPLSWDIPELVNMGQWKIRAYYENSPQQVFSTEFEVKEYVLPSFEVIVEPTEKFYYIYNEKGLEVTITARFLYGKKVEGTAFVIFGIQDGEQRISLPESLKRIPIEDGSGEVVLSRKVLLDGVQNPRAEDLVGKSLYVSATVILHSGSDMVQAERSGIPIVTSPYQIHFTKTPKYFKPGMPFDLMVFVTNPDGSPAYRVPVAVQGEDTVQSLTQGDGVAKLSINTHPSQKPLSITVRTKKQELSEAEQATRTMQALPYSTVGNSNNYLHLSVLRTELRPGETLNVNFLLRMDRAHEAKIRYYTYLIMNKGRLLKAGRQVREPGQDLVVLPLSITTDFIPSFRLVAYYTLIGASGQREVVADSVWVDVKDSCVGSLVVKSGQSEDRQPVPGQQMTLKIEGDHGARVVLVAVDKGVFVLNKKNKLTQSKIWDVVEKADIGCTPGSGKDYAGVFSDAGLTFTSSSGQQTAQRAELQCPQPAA
T1 sequence (P01024 749-1663 partner limits assumed): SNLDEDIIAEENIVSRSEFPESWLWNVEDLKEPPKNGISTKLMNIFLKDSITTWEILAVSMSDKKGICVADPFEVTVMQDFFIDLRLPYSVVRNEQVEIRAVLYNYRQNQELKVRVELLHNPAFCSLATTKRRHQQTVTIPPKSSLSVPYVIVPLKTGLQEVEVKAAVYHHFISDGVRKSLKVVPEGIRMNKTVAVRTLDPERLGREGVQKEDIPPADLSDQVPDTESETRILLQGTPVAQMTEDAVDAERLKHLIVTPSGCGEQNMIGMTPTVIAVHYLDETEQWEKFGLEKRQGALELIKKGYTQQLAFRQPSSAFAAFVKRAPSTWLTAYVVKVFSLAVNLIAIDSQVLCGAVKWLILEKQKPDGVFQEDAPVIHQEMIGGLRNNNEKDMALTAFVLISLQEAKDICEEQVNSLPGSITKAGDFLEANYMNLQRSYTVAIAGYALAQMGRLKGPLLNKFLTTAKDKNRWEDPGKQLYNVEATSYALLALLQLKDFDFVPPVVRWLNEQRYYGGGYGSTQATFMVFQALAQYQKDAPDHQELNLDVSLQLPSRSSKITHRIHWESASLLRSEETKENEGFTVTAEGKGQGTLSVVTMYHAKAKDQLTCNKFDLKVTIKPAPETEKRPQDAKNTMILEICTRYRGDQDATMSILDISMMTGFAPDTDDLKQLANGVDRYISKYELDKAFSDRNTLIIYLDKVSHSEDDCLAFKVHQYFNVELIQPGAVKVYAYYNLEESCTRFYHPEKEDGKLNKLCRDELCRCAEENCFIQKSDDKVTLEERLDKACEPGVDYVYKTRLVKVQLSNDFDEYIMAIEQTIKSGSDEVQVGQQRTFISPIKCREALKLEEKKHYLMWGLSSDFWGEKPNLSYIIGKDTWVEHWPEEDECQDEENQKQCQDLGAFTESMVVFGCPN
T2 sequence (P01024 23-667 limits assumed): as the sequence (P01024 23-667 limits assumed) above
T2 sequence (P01024 749-1663 partner limits assumed): as the sequence (P01024 749-1663 partner limits assumed) above

CC[C@H](C)[C@H](NC(=O)[C@H](N)Cc1ccc(O)cc1)C(=O)N[C@H]1CSSC[C@@H](C(=O)N(C)[C@H](C(=O)N[C@@H](CCCCN)C(=O)N[C@@H](CCCCN)C(=O)N[C@@H](CCCCN)C(N)=O)[C@@H](C)CC)NC(=O)[C@H](CCCNC(=N)N)NC(=O)[C@H](Cc2c[nH]cn2)NC(=O)[C@H](C)NC(=O)CN(C)C(=O)[C@H](Cc2c[nH]c3ccccc23)NC(=O)[C@H](CC(=O)O)NC(=O)[C@H](CCC(N)=O)NC(=O)[C@H](Cc2cn(C)c3ccccc23)NC(=O)[C@H](C(C)C)NC1=O [Cp40-KKK, DTyr-Ile-[Cys-Val-Trp(Me)-Gln-Asp-Trp-Sar-Ala-His-Arg-Cys]-mlle-Lys-Lys-Lys—NH2]
Cp40-K fragment detectable in plasma ([1]; 4 h after s.c. injection, one monkey): ≤ 5 µM
in vivo Lys cleavage in plasma ([1]; after s.c. injection, UPLC-ESI-MS): one or two Lys residues are cleaved from Cp40-KKK in NHP plasma, but not the third; also recorded: no Cp40 was detected in any of the plasma samples; also recorded: almost completely metabolized into Cp40-KK and small amounts of Cp40-K
decreased CL/F compared to Cp40 ([1]; single s.c. 2 mg/kg): ~3 fold
higher cmax than Cp40 ([1]; single s.c. 2 mg/kg): ~2 fold
increased AUC0-t compared to Cp40 ([1]; single s.c. 2 mg/kg): ~2.6 fold
plasma concentration of uncleaved Cp40-KKK at any time point ([1]; single s.c. 2 mg/kg, UPLC-ESI-MS, both animals): ≤ 2000 nM
CL/F, apparent clearance ([1]; single s.c. 2 mg/kg, SUM for Lys analogs, 2 mg/kg): 2483 ((mg/kg)/(μM · h) and 2921 ((mg/kg)/(μM · h)
IC50 [2]: 81.7 ± 5.3 nM
in vivo Lys cleavage in plasma ([3]; after i.v. injection): metabolized into Cp40-KK and small amounts of Cp40-K
AUC(0-t) ([3]; cynomolgus monkey, plasma, iv, 2 mg/kg, single i.v. injection, read-out: AUC0-120h): 304 to 312 µM·h
AUC0-120 h greater than Cp40-KK ([3]; single i.v. injection): over 3.5 fold
C3b-binding signal, heat-inactivated vitreous sample (purified human C3b; [4]): 10 relative units
C3b-binding signal, non-heat inactivated vitreous sample (purified human C3b; [4]): 2 relative units
C3b binding in vitreous (purified human C3b; spiked rabbit vitreous or injected NHP eye): binds to C3b in a dose-dependent manner; also recorded: maintains its C3b-binding activity
kd, dissociation constant (human C3b; 1:1 Langmuir model): 1.24 ± 0.42 10^−3s^−1
Kd (human C3b; KD=kd/ka, read-out: KD, equilibrium dissociation constant): 0.21 ± 0.09 nM
pH (after additional lyophilization from H2O): 9.5
pH of the peptide solution in PBS (at the stated concentration, indicator paper): 8.5
Conc. (mg/ml) at which pH in the 7 range was observed [5]: 7 mg/ml and 7.0 mg/ml
pH [5]: 7.5*
solubility (physchem): > 100 mg/mL
